# Source: article PMC3641841 (2010)
# Test system: Oxytricha Nova quadruplex (GGGGTTTTGGGG)2 (DNA, G4) GGGGTTTTGGGG
# Assay: ITC
# Conditions: 10 mM sodium cacodylate, 0.5 mM EDTA, pH 7.0, 20 °C
Structure (SMILES),Ka (K+ 90 mM),Ka (Na+ 100 mM)
NC[C@@H]1O[C@H](O[C@H]2[C@@H](O)[C@H](O[C@@H]3[C@@H](O)[C@H](N)C[C@H](N)[C@H]3O[C@H]3O[C@H](CN)[C@@H](O)[C@H](O)[C@H]3N)O[C@@H]2CO)[C@H](N)[C@@H](O)[C@@H]1O,1.15±0.08 × 10^5 M^−1,1.03±0.50 × 10^5 M^−1
NC[C@@H]1O[C@H](O[C@H]2[C@@H](O)[C@H](O[C@@H]3[C@@H](O)[C@H](N)C[C@H](N)[C@H]3O[C@H]3O[C@H](CO)[C@@H](O)[C@H](O)[C@H]3N)O[C@@H]2CO)[C@H](N)[C@@H](O)[C@@H]1O,0.45±0.01 × 10^5 M^−1,
